This is an account of results in paper PMC10818749, “Toxicity Studies of Cardiac-Targeting Peptide Reveal a Robust Safety Profile” (Pharmaceutics, 2024).

Data set [1] concerns the target T1, HEK-Nav1.5 (Late, Antagonist) (Homo sapiens, UniProt Q14524).
T1 construct: CYL7004QB2DR (late); host or cells: HEK
Type of data set: cell-based. As to conditions: antagonist mode; Qube APC (1 conc.); late current, 50nM ATXII; read-out: Estimated IC50 (reference compound).

Another data set deals with CHO-KCNQ1/minK (Homo sapiens, UniProt P15382+P51787). To be noted: read-out: Estimated IC50 (reference compound); antagonist mode; Qube APC (1 conc.).
In another data set the target is HEK-Kv4.3/KChIP2 (Homo sapiens, UniProt Q9NS61+Q9UK17). Kind of data set: cell-based.
Sequence of HEK-Kv4.3/KChIP2 (Q9UK17 whole entry): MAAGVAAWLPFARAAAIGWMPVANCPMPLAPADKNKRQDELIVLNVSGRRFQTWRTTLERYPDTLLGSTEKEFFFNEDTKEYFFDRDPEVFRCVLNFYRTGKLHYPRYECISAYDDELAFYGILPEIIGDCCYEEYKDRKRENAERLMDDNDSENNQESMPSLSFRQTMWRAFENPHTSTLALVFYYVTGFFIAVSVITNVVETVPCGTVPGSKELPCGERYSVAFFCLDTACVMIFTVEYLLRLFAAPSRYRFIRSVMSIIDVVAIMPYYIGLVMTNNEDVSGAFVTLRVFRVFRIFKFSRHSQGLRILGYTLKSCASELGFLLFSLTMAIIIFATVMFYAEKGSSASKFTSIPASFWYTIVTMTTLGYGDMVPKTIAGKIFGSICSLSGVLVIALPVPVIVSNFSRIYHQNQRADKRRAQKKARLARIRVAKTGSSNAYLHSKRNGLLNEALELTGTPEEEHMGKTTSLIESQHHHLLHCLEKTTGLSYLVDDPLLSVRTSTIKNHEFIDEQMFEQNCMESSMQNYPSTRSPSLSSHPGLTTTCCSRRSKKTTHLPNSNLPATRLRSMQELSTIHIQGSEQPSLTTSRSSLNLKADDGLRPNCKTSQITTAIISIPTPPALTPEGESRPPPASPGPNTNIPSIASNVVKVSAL
Sequence of HEK-Kv4.3/KChIP2 (Q9NS61 whole entry partner): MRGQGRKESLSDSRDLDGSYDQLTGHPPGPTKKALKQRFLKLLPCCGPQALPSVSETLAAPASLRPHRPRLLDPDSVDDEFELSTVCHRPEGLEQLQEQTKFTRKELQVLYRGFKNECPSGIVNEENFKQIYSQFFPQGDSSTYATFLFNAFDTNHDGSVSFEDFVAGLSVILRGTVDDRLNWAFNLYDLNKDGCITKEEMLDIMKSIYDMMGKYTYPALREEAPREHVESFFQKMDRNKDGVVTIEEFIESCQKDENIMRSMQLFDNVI
Another data set deals with T2, HEK-Kir2.1 (Homo sapiens, UniProt P63252).
T2 construct: host or cells: HEK
T2 sequence (P63252 whole entry): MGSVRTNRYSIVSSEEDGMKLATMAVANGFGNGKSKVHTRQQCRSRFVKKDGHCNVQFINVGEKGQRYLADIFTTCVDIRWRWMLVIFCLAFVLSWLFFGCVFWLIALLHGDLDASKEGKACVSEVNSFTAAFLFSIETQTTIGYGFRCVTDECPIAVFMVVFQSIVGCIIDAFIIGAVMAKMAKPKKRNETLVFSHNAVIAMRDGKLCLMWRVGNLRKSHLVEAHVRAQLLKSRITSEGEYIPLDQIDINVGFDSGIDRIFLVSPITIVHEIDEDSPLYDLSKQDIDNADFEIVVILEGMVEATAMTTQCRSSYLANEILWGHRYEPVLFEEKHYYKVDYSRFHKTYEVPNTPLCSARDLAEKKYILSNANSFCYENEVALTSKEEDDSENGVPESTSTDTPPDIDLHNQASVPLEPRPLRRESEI
Type of data set: cell-based. To be noted: read-out: Estimated IC50 (reference compound).

The subject of a further data set is cancer cell lines. To be noted: ref Saar and colleagues; cited from earlier work.
The test system of data set [2] is leukemia and peripheral blood monocyte cell line. Also on record: method as in PMID 16137634. As to conditions: 5 and 10 µM; ref [51]; cited from earlier work.

T1 sequence (Q14524 whole entry): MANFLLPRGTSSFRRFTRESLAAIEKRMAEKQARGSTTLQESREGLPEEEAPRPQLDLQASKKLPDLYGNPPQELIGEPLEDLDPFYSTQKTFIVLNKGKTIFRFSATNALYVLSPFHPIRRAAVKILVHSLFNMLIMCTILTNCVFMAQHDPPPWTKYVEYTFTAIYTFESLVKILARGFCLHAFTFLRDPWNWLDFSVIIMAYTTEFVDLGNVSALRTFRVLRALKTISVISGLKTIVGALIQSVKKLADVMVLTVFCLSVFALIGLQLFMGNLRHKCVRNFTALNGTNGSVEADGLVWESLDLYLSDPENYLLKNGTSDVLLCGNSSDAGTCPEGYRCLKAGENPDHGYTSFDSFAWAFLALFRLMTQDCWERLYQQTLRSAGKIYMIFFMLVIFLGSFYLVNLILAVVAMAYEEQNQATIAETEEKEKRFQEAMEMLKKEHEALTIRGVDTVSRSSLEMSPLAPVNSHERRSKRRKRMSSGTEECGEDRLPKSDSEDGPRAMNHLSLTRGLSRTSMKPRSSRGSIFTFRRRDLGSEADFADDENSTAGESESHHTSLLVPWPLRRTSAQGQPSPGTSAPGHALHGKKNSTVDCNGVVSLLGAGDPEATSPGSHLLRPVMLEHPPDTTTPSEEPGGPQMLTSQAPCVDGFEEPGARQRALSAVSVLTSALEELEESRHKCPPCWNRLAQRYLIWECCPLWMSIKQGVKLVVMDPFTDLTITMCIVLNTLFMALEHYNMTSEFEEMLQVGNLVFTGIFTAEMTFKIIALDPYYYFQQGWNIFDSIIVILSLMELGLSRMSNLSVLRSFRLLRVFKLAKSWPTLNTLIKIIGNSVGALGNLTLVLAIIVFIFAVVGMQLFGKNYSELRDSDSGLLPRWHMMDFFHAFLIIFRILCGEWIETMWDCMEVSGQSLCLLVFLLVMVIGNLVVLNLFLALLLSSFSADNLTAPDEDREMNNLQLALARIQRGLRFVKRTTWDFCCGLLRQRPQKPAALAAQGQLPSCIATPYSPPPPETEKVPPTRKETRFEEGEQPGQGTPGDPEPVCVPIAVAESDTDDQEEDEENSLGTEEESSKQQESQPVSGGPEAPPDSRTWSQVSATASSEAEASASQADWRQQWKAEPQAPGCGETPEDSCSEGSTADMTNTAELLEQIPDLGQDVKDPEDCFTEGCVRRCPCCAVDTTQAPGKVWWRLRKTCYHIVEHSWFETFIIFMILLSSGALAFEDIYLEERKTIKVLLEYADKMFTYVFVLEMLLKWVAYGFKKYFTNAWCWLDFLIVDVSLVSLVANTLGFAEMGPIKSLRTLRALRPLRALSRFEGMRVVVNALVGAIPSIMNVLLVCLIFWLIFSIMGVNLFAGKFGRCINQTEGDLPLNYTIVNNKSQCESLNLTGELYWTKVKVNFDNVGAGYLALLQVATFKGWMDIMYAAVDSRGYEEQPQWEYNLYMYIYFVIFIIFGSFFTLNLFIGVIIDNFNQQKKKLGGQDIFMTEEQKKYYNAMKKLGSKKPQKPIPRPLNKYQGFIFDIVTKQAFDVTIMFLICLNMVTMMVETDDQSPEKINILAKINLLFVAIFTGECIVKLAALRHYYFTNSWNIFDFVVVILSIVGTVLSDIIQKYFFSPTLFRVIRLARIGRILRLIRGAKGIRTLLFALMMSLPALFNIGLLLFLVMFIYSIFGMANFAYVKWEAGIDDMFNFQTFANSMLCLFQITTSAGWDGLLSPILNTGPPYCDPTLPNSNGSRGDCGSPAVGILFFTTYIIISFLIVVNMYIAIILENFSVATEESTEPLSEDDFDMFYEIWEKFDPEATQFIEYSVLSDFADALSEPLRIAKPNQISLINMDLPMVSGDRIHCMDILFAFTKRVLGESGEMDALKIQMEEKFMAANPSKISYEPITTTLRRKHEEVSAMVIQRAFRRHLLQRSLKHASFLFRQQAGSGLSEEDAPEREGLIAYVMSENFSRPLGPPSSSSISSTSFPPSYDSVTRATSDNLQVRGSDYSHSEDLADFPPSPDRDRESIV

As a reminder, the IC50 is the midpoint of a concentration-inhibition curve. Turning to `COc1ccccc1OCC(O)CN1CCN(CC(=O)Nc2c(C)cccc2C)CC1` (stereo not shown) [Ranolazine, reference compound], the IC50 in data set [1] is 72.5 µM. On to `CCS(=O)(=O)N(C)[C@H]1c2cc(C#N)ccc2OC(C)(C)[C@@H]1O` (racemic) [Chromanol 293B, reference compound], for which the IC50 on CHO-KCNQ1/minK was 21.5 µM. For the compound `O=C(NCC1CCCCN1)c1cc(OCC(F)(F)F)ccc1OCC(F)(F)F` (stereo not shown) [Flecainide], the IC50 against HEK-Kv4.3/KChIP2 turned out to be 12.5 µM.

`[Ba+2].[Cl-].[Cl-]` [Barium Chloride, reference compound]: on HEK-Kir2.1, the IC50 is 17.7 µM. As to “pVEC: well-characterized, non-cell-specific CPP (TLLIILRRRIRKQAHAHS; UniProt P55284 615-632, looked up, fragment)”, the “membrane leakage of lactate dehydrogenase” value in the data set on cancer cell lines was “minimal membrane leakage of lactate dehydrogenase”. With transportan 10, the cytokine release result in data set [2] is “no increase in cytokine levels”. Also, the “membrane leakage of lactate dehydrogenase” value in the data set with cancer cell lines is “significant leakage”.
